The test system of one data set is 22Rv1 cells. The data set is described as follows: Cell viability assay, 22Rv1. In kind it is cell-based, human. The note with it: for Growth inhibition of 22Rv1 cells / IC50: serial dilution; for Growth inhibition of 22Rv1 cells: up to 10 µM; for Inhibitory activity in 22Rv1: 1 μM; for Inhibitory activity in 22Rv1 / viability at 5 µM / viability at 10 µM / IC50: 72 h; for viability at 5 µM / viability at 10 µM / IC50: Homo sapiens, 22Rv1; for viability at 5 µM / viability at 10 µM: read-out: % activation (cell viability) in 22Rv1; for IC50: read-out: IC50, growth inhibition of 22Rv1 cells. The protocol:
(§1) NCI-H660 cells were purchased from the American Type Culture Collection (ATCC) and grown in RPMI medium supplemented with 5% fetal bovine serum (FBS), 1% Isulin-Transferrin-Selenium (Thermo Fisher, 41400-045, Waltham, MA, USA), 10 nM b-estradiol (Sigma, E8875; Darmstadt, Germany), 10 nM hydrocortisone (Sigma H0888), and 1% matrigel. HO15.19 cells were a generous gift from John Sidivy at Brown University and were cultured in Dulbecco’s modified Eagle’s medium (DMEM) (ATCC 30–2002) supplemented with 10% FBS. LNCaP-N-Myc and 22rv1-N-Myc cells were a generous gift from David Rickman at Weill Cornell Medicine (New York, NY, USA) and were cultured in RPMI supplemented with 10% FBS.
(§2) Viability of N-Myc -overexpressing LNCaP and 22Rv1 was done with 5000 cells per well in RPMI supplemented with 10% FBS and read with Cell Titer Glo (Promega, cat# G7572; Madison, WI, USA) according to the manufacturer’s protocol. Eagle’s minimum essential medium (EMEM) supplemented with 10% FBS was used for the Myc-negative HO15.19 cells at 2000 cells per well and 20,000 neuroendocrine NCI-H660 cells were plated in RPMI supplemented with 5% FBS, 1% Isulin-Transferrin-Selenium (Thermo Fisher, 41400-045), 10 nM b-estradiol (Sigma, E8875), 10 nM hydrocortisone (Sigma H0888), and 1% matrigel. All cells were incubated for 72 h with the compounds.

The test system of a further data set is LNCaP cells. The data set is described as follows: Cell viability assay, LNCaP. It counts as cell-based, human. The note with it: for Growth inhibition of LNCaP cells / IC50: serial dilution; for Growth inhibition of LNCaP cells: up to 10 µM; for Inhibitory activity in LNCaP: 1 μM; for Inhibitory activity in LNCaP / viability at 5 µM / viability at 10 µM / IC50: 72 h; for viability at 5 µM / viability at 10 µM / IC50: Homo sapiens, LNCaP; for viability at 5 µM / viability at 10 µM: read-out: % activation (cell viability) in LNCaP; for IC50: read-out: IC50, growth inhibition of LNCaP cells. The protocol:
LNCaP were plated at 5000 cells per well in RPMI 1640 containing 5% CSS in a 96-well plate, treated with test compounds (0–25 μM) for 72 h. Cell density was measured using the PrestoBlue assay according to the manufacturer’s protocol. The percentage of cell survival was normalized to the cell density of control wells treated by vehicle. […]

Another data set has as its system Myc-Max. The data set is described as follows: Myc-Max luciferase transcription inhibition (Cignal Myc reporter) assay in LNCaP cells. In kind it is cell-based. The note with it: Homo sapiens, 24 h, 0-25 μM, 1 day. As for the experimental part:
The eGFP Myc transcriptional activity was assayed as previously described. Briefly, cell transfection was performed using TransIT-2020 transfection reagents according to the manufacturer’s instructions. LNCaP cells were plated at 10,000 cells per well and treated for 1 day with the indicated concentration of compound with increasing concentrations (0−25 μM) of compounds for screening and measuring IC50. Myc reporter activity was measured using the Cignal Myc Reporter Assay Kit from Qiagen (#336841; Hilden, Germany) according to the manufacturer’s instructions.

In a further data set the test system is NCI-H660 cells. The data set is described as follows: Cell viability assay, NCI-H660. In kind it is cell-based. Particulars: 72 h; for Inhibitory activity in NCI-H660: 1 μM; for viability at 5 µM / viability at 10 µM: NCI-H660, read-out: % activation (cell viability) in NCI-H660. The protocol: as §1, §2
For another data set, the system named is HO15.19 cells. The data set is described as follows: Growth / viability in Myc negative cell line HO15.19. In kind it is cell-based. The protocol:
as §1
Viability of N-Myc -overexpressing LNCaP and 22Rv1 was done with 5000 cells per well in RPMI supplemented with 10% FBS and read with Cell Titer Glo (Promega, cat# G7572; Madison, WI, USA) according to the manufacturer’s protocol. Eagle’s minimum essential medium (EMEM) supplemented with 10% FBS was used for the Myc-negative HO15.19 cells at 2000 cells per well and 20,000 neuroendocrine NCI-H660 cells were plated in RPMI supplemented with 5% FBS, 1% Isulin-Transferrin-Selenium (Thermo Fisher, 41400-045), 10 nM b-estradiol (Sigma, E8875), 10 nM hydrocortisone (Sigma H0888), and 1% matrigel. […]

In the next data set the target is N-Myc-Max DBD (Homo sapiens, UniProt P04198+P61244). The data set is described as follows: Biolayer interferometry: binding of N-Myc-Max complex to biotinylated E-box DNA. Particulars: 100 µM and 200 µM. As for the experimental part:
The direct interaction between biotinylated E-box oligo immobilized on a streptavidin biosensor and a purified N-Myc-Max complex (0.05 mg/ml) was quantified by BLI using OctetRED (ForteBio). The DNA was first bound to the super-streptavidin sensors. The sensors were next moved into wells containing the reaction buffer (20 mM Tris pH 8, 150 mM NaCl, 5% glycerol, 0.2 mM TCEP, 5% dimethylsulfoxide) for measuring the baseline and next into the N-Myc-Max complex alone or in presence of the tested inhibitors to study the association of the complex to the DNA.

The next data set addresses T1, AURKA (Homo sapiens, UniProt O14965).
T1 construct: 10 ng Aurora-A catalytic domain
T1 sequence (O14965 133-383 limits assumed): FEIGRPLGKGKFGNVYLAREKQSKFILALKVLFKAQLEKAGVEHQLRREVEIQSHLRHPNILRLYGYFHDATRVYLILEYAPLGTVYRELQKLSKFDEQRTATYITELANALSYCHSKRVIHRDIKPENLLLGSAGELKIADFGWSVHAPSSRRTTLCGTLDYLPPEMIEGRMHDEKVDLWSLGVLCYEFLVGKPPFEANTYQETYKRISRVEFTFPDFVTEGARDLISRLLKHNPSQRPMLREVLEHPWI
Description: Aurora A kinase activity assay (ADP-Glo). It counts as biochemical. The note with it: read-out: AURKA enzyme activity remaining. As for the experimental part: AURKA kinase assays were performed using the ADP-Glo Kinase assay (Promega) according to the manufacturer protocol. Measurement of Aurora-A activity was carried out using reactions containing (per well):10 ng Aurora-A catalytic domain, 50 uM ATP, and 0.5 myelin basic protein (MBP), in 5% dimethyl sulfoxide (DMSO). Reactions were incubated at room temperature for 60 min, and luminescence data (integration time: 0.5–1 s) was recorded on a Tecan M200 Pro reader (Männedorf, Switzerland).

Sequence of N-Myc-Max DBD (P04198 377-464): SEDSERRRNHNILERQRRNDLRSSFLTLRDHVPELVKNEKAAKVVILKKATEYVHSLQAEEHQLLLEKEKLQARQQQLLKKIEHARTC
Sequence of N-Myc-Max DBD (P61244 22-102): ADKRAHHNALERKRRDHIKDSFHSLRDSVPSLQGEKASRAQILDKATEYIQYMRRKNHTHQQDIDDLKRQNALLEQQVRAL

For `O=[N+]([O-])c1ccc(Nc2ccccc2-c2ccccc2)c2nonc12` [10074-G5, reference compound], the “Growth inhibition of 22Rv1 cells” value in the data set on 22Rv1 cells was “ineffective”. The “Growth inhibition of LNCaP cells” value in the data set on LNCaP cells is “ineffective”.

As to `N#Cc1ccc(NNC(=O)c2ccc(C(F)(F)F)cc2)c(C(F)(F)F)c1` [compound 70551, N′-[4-cyano-2-(trifluoromethyl)phenyl]-4-(trifluoromethyl)benzohydrazide], the IC50 in the data set on Myc-Max was 4 µM. For the same molecule, in the data set with 22Rv1 cells, the “Inhibitory activity in 22Rv1” value is “no significant inhibitory activity”, the viability at 5 µM is greater than 75%, the viability at 10 µM was found to be 78.8% and the IC50 turned out to be 15.6 µM. Also, in the data set with LNCaP cells, the “Inhibitory activity in LNCaP” value was “no significant inhibitory activity”, the viability at 5 µM is greater than 75%, the viability at 10 µM was 49.7% and the IC50 was 11.1 µM. Further, in the data set with NCI-H660 cells, the “Inhibitory activity in NCI-H660” value is listed as “no significant inhibitory activity”, the viability at 5 µM was greater than 75% and the viability at 10 µM was 49.2%. Besides, in the data set with HO15.19 cells (20 μM, 120 h), the “Toxicity in HO15.19” value is “slight toxicity”. Moreover, the “Effect on HO15.19 growth” value in the data set on HO15.19 cells (N-Myc null cell line, 120 h, below 20 μM) is “minimal effect”. Besides, the “Disruption of DNA binding to N-Myc-Max DBD (BLI)” value on N-Myc-Max DBD was “weak disruption”.

Consider `O=C(Nc1ccc(Nc2nccc(Nc3cc(C4CCCC4)[nH]n3)n2)cc1)Nc1cccc(C(F)(F)F)c1` [CD532, reference compound], for which, in the data set with HO15.19 cells (10, 5 and 1 µM, 72 h), the “Cytotoxicity in N-Myc negative cell line HO15.19” value was “cytotoxicity”.

Regarding `CCc1ccc(/C=C2/SC(=S)NC2=O)cc1` [10058-F4, reference compound], the “Growth inhibition of 22Rv1 cells” value in the data set on 22Rv1 cells is given as “ineffective”. Besides, in the data set on LNCaP cells, the “Growth inhibition of LNCaP cells” value is reported as “ineffective”.

`N#Cc1ccc(NNC(=O)c2ccc(Nc3nccc(Nc4cc(C5CCCC5)n[nH]4)n3)cc2)c(C(F)(F)F)c1` [compound 70812] displayed a half-maximal inhibitory concentration (IC50) in the data set on Myc-Max of 2 µM. In the data set on 22Rv1 cells, the “Inhibitory activity in 22Rv1” value is recorded as “No discernable inhibitory activity”, the viability at 5 µM turned out to be 66.5%, the viability at 10 µM turned out to be 16.6% and the IC50 came out at 3.71 µM. For the same molecule, in the data set with LNCaP cells, the “Inhibitory activity in LNCaP” value is “No discernable inhibitory activity”, the viability at 5 µM turned out to be 32.5%, the viability at 10 µM was found to be 1.4% and the half-maximal inhibitory concentration (IC50) was 3.05 µM. In the data set with NCI-H660 cells, the “Inhibitory activity in NCI-H660” value was “No discernable inhibitory activity”, the viability at 5 µM worked out at 82.9% and the viability at 10 µM is 52.1%. In addition, the remaining activity at 5 µM at AURKA (5 µM compound) is 21.1%. The remaining activity at 10 µM at AURKA (10 µM compound) is 19.9%. Also, the remaining activity at 15 µM on AURKA (15 µM compound) is 18.7%. For the same molecule, the remaining activity at 30 µM on AURKA (30 µM compound) worked out at 21.4%. The “Disruption of DNA binding to N-Myc-Max DBD (BLI)” value at N-Myc-Max DBD is recorded as “effectively disrupt”.

The values above are taken from article PMC7663809, “Dual-Inhibitors of N-Myc and AURKA as Potential Therapy for Neuroendocrine Prostate Cancer” (International Journal of Molecular Sciences, 2020).
